Reference: PubChem BioAssay (NCI)
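Where inhibition never reached the appropriate level, the endpoint shown equals the highest concentration tested. Otherwise, values were interpolated linearly from a five-concentration, 48-hour dose response in 96-well plates. At the GI50, growth is halved. TGI marks complete inhibition of growth.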

Tests used:
Assay in all cases: NCI anticancer screen, dose series, 48 h
[1] = test system: 786-0 renal
[2] = test system: A498 renal
[3] = test system: A549 NSCLC
[4] = test system: ACHN renal
[5] = test system: BT-549 breast
[6] = test system: CAKI-1 renal
[7] = test system: CCRF-CEM leukemia
[8] = test system: COLO 205 colon
[9] = test system: DU-145 prostate
[10] = test system: EKVX NSCLC
[11] = test system: HCC-2998 colon
[12] = test system: HCT-116 colon
[13] = test system: HCT-15 colon
[14] = test system: HL-60(TB) leukemia
[15] = test system: HOP-62 NSCLC
[16] = test system: HOP-92 NSCLC
[17] = test system: HS 578T breast
[18] = test system: HT29 colon
[19] = test system: IGROV1 ovarian
[20] = test system: K-562 leukemia
[21] = test system: KM12 colon
[22] = test system: LOX IMVI melanoma
[23] = test system: M14 melanoma
[24] = test system: MALME-3M melanoma
[25] = test system: MCF7 breast
[26] = test system: MDA-MB-231 breast
[27] = test system: MDA-MB-435
[28] = test system: MDA-MB-468 breast
[29] = test system: MOLT-4 leukemia

COc1ccc([C@H]2C(C(=O)c3ccc(Cl)cc3)C3(N[C@@H]2c2ccccc2)C(=O)Nc2ccc(Br)cc23)cc1 (stereo partly drawn)
GI50 [1]: 12.4 µM
TGI [1]: 32.3 µM
GI50 [2]: 10.5 µM
TGI [2]: 24.8 µM
GI50 [3]: 11.9 µM
TGI [3]: 34.2 µM
GI50 [4]: 13.4 µM
TGI [4]: 41.6 µM
GI50 [5]: 8.66 µM
TGI [5]: 16.6 µM
GI50 [6]: 13.1 µM
TGI [6]: 42.4 µM
GI50 [7]: 14.4 µM
TGI [7]: 40.5 µM
GI50 [8]: 8.35 µM
TGI [8]: 16 µM
GI50 [9]: 13.5 µM
TGI [9]: 36.7 µM
GI50 [10]: 12.4 µM
TGI [10]: 42.6 µM
GI50 [11]: 8.82 µM
TGI [11]: 17.9 µM
GI50 [12]: 9.7 µM
TGI [12]: 18.5 µM
GI50 [13]: 9.91 µM
TGI [13]: 20.3 µM
GI50 [14]: 11.3 µM
TGI [14]: 29.8 µM
GI50 [15]: 8.59 µM
TGI [15]: 16.5 µM
GI50 [16]: 8.27 µM
TGI [16]: 19.7 µM
GI50 [17]: 9.96 µM
TGI [17]: 26.6 µM
GI50 [18]: 9.03 µM
TGI [18]: 17.1 µM
GI50 [19]: 11 µM
TGI [19]: 25.9 µM
GI50 [20]: 15.8 µM
TGI [20]: > 53.3 µM
GI50 [21]: 11.5 µM
TGI [21]: 25.5 µM
GI50 [22]: 7.86 µM
TGI [22]: 15.9 µM
GI50 [23]: 9.18 µM
TGI [23]: 19.1 µM
GI50 [24]: 7.69 µM
TGI [24]: 15.1 µM
GI50 [25]: 11.5 µM
TGI [25]: 34.9 µM
GI50 [26]: 8.88 µM
TGI [26]: 16.5 µM
GI50 [27]: 10.2 µM
TGI [27]: 20.4 µM
GI50 [28]: 10.2 µM
TGI [28]: 27 µM
GI50 [29]: 14.8 µM
TGI [29]: 47.2 µM
